The numbers were not newly measured in patent publication US9050341B2, “Methods of treating drug resistant and other tumors by administering 6,7-dialkoxy quinazoline derivatives” (NATCO PHARMA LIMITED, priority 2009, dated 2015), which cites them from elsewhere.

Where a name gives a salt, the structure may show the parent alone.

For the data set the following is noted: beagle dogs; source not stated; cited from earlier work.

Take `C#Cc1cccc(Nc2ncnc3cc(OCCOC)c(OCCOC)cc23)c1` [Erlotinib HCl, N-(3-Ethylnylphenyl)-6,7-bis(2-methoxyethoxy)-4-quinazolinamine]: the “no observed adverse effect level (NOAEL), corresponding value” is 5 mg/kg b.wt/day.
